Five cell lines from the supplement of paper PMC10307832 can be followed below.

Common to all, as to assay: relative viability (nuclei count vs DMSO), 5 days (fraction); higher = more cells survive
Compound in assay [1]: CCn1c(-c2nonc2N)nc2c(C#CC(C)(C)O)ncc(OC[C@H]3CCCNC3)c21 + CS(=O)(=O)N1CCN(Cc2cc3nc(-c4cccc5[nH]ncc45)nc(N4CCOCC4)c3s2)CC1 [Pictilisib] (partner 1 µM)
In outline: (§1)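 Relative viability divides the nuclei count in treated wells by that in vehicle wells. Lung cancer cell lines were seeded in 1536-well plates, dosed by pin tool the next day, and fixed and stained after 5 days in one step with final 0.05% Triton X-100, 1% formaldehyde and 1 ug/ml Hoechst. Dosing was a single drug or a fixed anchor-drug dose plus five library-drug doses (not always all listed) in √10 steps, and values are medians of duplicate plates imaged at 4×.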

Compound in assay [2]: CCn1c(-c2nonc2N)nc2c(C#CC(C)(C)O)ncc(OC[C@H]3CCCNC3)c21 + O=C(CCCCCCC(=O)Nc1ccccc1)NO [Vorinostat] (partner 1 µM)
In outline: as §1

Compound in assay [3]: CCn1c(-c2nonc2N)nc2c(C#CC(C)(C)O)ncc(OC[C@H]3CCCNC3)c21 + CC(=O)Nc1cccc(-n2c(=O)n(C3CC3)c(=O)c3c(Nc4ccc(I)cc4F)n(C)c(=O)c(C)c32)c1 [Trametinib] (partner 0.02 µM)
In outline: as §1

Compound in the assay “BAM7 + Phenformin”: CCOC1=CC=CC=C1N=NC2=C(NN(C2=O)C3=NC(=CS3)C4=CC=CC=C4)C [BAM7] + N=C(N)NC(=N)NCCc1ccccc1 [Phenformin] (partner 250 µM)
In outline:
as §1

On to NCI-H2228, for which the relative viability in assay [1] (first compound 0.01 µM) was determined as 0.295; in assay [1] (first compound 0.03162 µM), 0.386; in assay [1] (first compound 0.1 µM), 0.347; in assay [1] (first compound 0.3162 µM) it was 0.216; in assay [1] (first compound 1 µM), 0.294; in assay [2] (first compound 0.01 µM), 0.539. The relative viability in assay [2] (first compound 0.03162 µM) is 0.828; in assay [2] (first compound 0.1 µM), 0.409; in assay [2] (first compound 0.3162 µM), 0.7; in assay [2] (first compound 1 µM) it was 0.497; in assay [3] (first compound 0.01 µM), 0.553; in assay [3] (first compound 0.03162 µM), 0.449. For the same cell line, the relative viability came out at 0.468 in assay [3] (first compound 0.1 µM); 0.325 in assay [3] (first compound 0.3162 µM); 0.197 in assay [3] (first compound 1 µM); 0.302 in the assay with BAM7 + Phenformin (first compound 0.5 µM); 0.355 in the assay with BAM7 + Phenformin (first compound 5 µM); 0.418 with BAM7 + Phenformin (first compound 15.81 µM). The relative viability in the assay with BAM7 + Phenformin (first compound 50 µM) is 0.317.

In the case of NCI-H2347, the relative viability in assay [1] (first compound 0.01 µM) was determined as 0.456; in assay [1] (first compound 0.03162 µM) it was 0.675; in assay [1] (first compound 0.1 µM), 0.0164; in assay [1] (first compound 0.3162 µM), 0.858; in assay [1] (first compound 1 µM) it was 0.472; in assay [2] (first compound 0.01 µM), 0.602. Further, the relative viability was determined as 0.522 in assay [2] (first compound 0.03162 µM); 0.611 in assay [2] (first compound 0.1 µM); 0.543 in assay [2] (first compound 0.3162 µM); 0.55 in assay [2] (first compound 1 µM); 0.251 in assay [3] (first compound 0.01 µM); 0.314 in assay [3] (first compound 0.03162 µM). The relative viability in assay [3] (first compound 0.1 µM) turned out to be 0.242; in assay [3] (first compound 0.3162 µM), 0.263; in assay [3] (first compound 1 µM) it was 0.332; in the assay with BAM7 + Phenformin (first compound 0.5 µM) it was 0.622; with BAM7 + Phenformin (first compound 5 µM) it was 0.31; with BAM7 + Phenformin (first compound 50 µM) it was 0.37.

As for NCI-H2405, the relative viability in assay [1] (first compound 0.01 µM) worked out at 0.407; in assay [1] (first compound 0.03162 µM), 0.492; in assay [1] (first compound 0.3162 µM) it was 0.445; in assay [1] (first compound 1 µM) it was 0.406; in assay [2] (first compound 0.01 µM), 0.811; in assay [2] (first compound 0.03162 µM), 0.838. Further, the relative viability is 0.913 in assay [2] (first compound 0.1 µM); 0.854 in assay [2] (first compound 0.3162 µM); 1.06 in assay [2] (first compound 1 µM); 0.664 in assay [3] (first compound 0.01 µM); 0.683 in assay [3] (first compound 0.03162 µM); 0.646 in assay [3] (first compound 0.1 µM). Moreover, the relative viability in assay [3] (first compound 0.3162 µM) was 0.598; in assay [3] (first compound 1 µM), 0.604; with BAM7 + Phenformin (first compound 0.5 µM) it was 0.395; with BAM7 + Phenformin (first compound 5 µM), 0.411; with BAM7 + Phenformin (first compound 15.81 µM), 0.416; with BAM7 + Phenformin (first compound 50 µM), 0.435.

NCI-H3122: the relative viability in assay [1] (first compound 0.01 µM) came to 0.606; in assay [1] (first compound 0.03162 µM), 0.612; in assay [1] (first compound 0.1 µM), 0.634; in assay [1] (first compound 0.3162 µM), 0.598; in assay [1] (first compound 1 µM), 0.55; in assay [2] (first compound 0.01 µM), 1.07. For the same cell line, the relative viability was found to be 1.01 in assay [2] (first compound 0.03162 µM); 1.05 in assay [2] (first compound 0.1 µM); 1.06 in assay [2] (first compound 0.3162 µM); 0.994 in assay [2] (first compound 1 µM); 0.242 in assay [3] (first compound 0.01 µM); 0.224 in assay [3] (first compound 0.03162 µM). Further, the relative viability came out at 0.236 in assay [3] (first compound 0.1 µM); 0.192 in assay [3] (first compound 0.3162 µM); 0.242 in assay [3] (first compound 1 µM); 0.362 with BAM7 + Phenformin (first compound 0.5 µM); 0.371 with BAM7 + Phenformin (first compound 5 µM); 0.329 with BAM7 + Phenformin (first compound 15.81 µM). Further, in the assay with BAM7 + Phenformin (first compound 50 µM), the relative viability was determined as 0.35.

For the cell line PC-3 [JPC-3], the relative viability was 0.754 in assay [1] (first compound 0.01 µM); 0.744 in assay [1] (first compound 0.03162 µM); 0.762 in assay [1] (first compound 0.1 µM); 0.695 in assay [1] (first compound 0.3162 µM); 0.643 in assay [1] (first compound 1 µM); 0.553 in assay [2] (first compound 0.01 µM). The relative viability in assay [2] (first compound 0.1 µM) amounted to 0.73; in assay [2] (first compound 0.3162 µM) it was 0.76; in assay [2] (first compound 1 µM), 0.751; in assay [3] (first compound 0.01 µM), 0.702; in assay [3] (first compound 0.1 µM) it was 0.732; in assay [3] (first compound 0.3162 µM) it was 0.648. The relative viability in assay [3] (first compound 1 µM) amounted to 0.687; in the assay with BAM7 + Phenformin (first compound 0.5 µM), 0.447; in the assay with BAM7 + Phenformin (first compound 5 µM) it was 0.491; in the assay with BAM7 + Phenformin (first compound 15.81 µM) it was 0.458; with BAM7 + Phenformin (first compound 50 µM), 0.439.
